Assay results as given in patent US10065990B2, “Cyclic peptide compound, and preparation method, pharmaceutical composition and use thereof” (HANGZHOU GUANYU BIO-MEDICAL CO., LTD, priority 2013, dated 2018).
Like-named read-outs stand apart in the source and are kept apart here.

Assays:
[1] = system: Huh-7 (human hepatoma cells); test: MTT cancer cell growth inhibition; format: cell-based; conditions: Homo sapiens, Huh-7, 72 h, MTT, 72 hours incubation, Huh-7 cells; read-out: GI50 Huh-7
In short: (§1)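 Using a 72 h MTT format, triplicate wells of 1500 cells received compound concentrations from 10^−5 to 10^−10 M. Formazan was read at 570 nm after DMSO dissolution, and GI50 was derived from viability.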

[2] = system: Bel-7402 (human hepatoma cells); test: MTT cancer cell growth inhibition; format: cell-based; conditions: Homo sapiens, Bel-7402, 72 h, MTT, 72 hours incubation, Bel-7402 cells; read-out: GI50 Bel-7402
In short: as §1

[3] = system: HCC827 (human non-small cell lung cancer cells); test: MTT cancer cell growth inhibition; format: cell-based; conditions: Homo sapiens, HCC827, 72 h, MTT, 72 hours incubation, HCC827 cells; read-out: GI50 HCC827
In short: as §1

[4] = system: KBM-5 (human chronic myelogenous leukemia); test: MTT cancer cell growth inhibition; format: cell-based; conditions: Homo sapiens, KBM5, 72 h, MTT, 72 hours incubation, KBM-5 cells; read-out: GI50 KBM-5
In short: as §1

[5] = system: H1975 (non-small cell lung adenocarcinoma); test: MTT cancer cell growth inhibition; format: cell-based; conditions: Homo sapiens, NCI-H1975, 72 h, MTT, 72 hours incubation, H1975 cells; read-out: GI50 H1975
In short: as §1

[6] = system: MDA-MB-231 (breast cancer cells); test: MTT cancer cell growth inhibition; format: cell-based; conditions: Homo sapiens, MDA-MB-231, 72 h, read-out: GI50 MDA-MB-231, MTT, 72 hours incubation, MDA-MB-231 cells
In short: as §1

[7] = system: U937 (human leukemia cells); test: MTT cancer cell growth inhibition; format: cell-based; conditions: Homo sapiens, U-937, 72 h, MTT, 72 hours incubation, read-out: GI50 U93
In short: as §1

[8] = system: SGC-7901 (human gastric cancer cells); test: MTT cancer cell growth inhibition; format: cell-based; conditions: Homo sapiens, SGC-7901, 72 h, MTT, 72 hours incubation, SGC-7901 cells; read-out: GI50 SGC-7901
In short: as §1

[9] = system: HT1080 (human fibrosarcoma cells); test: MTT cancer cell growth inhibition; format: cell-based; conditions: Homo sapiens, HT-1080, 72 h, MTT, 72 hours incubation, read-out: GI50 HT1
In short: as §1

[10] = system: N-87 (human gastric cancer cells); test: MTT cancer cell growth inhibition; format: cell-based; conditions: Homo sapiens, 72 h, MTT, 72 hours incubation, N-87 cells; read-out: GI50 N-87
In short: as §1

[11] = system: Hela (human cervical cancer cells); test: MTT cancer cell growth inhibition; format: cell-based; conditions: Homo sapiens, HeLa, 72 h, MTT, 72 hours incubation, read-out: GI50 Hela
In short: as §1

[12] = system: PANC-1 (Pac-1, human pancreatic cancer cells); test: MTT cancer cell growth inhibition; format: cell-based; conditions: Homo sapiens, PANC-1, 72 h, MTT, 72 hours incubation, read-out: GI50 PAN
In short: as §1

[13] = system: K562 (human leukemia cells); test: MTT cancer cell growth inhibition; format: cell-based; conditions: Homo sapiens, K562, 72 h, MTT, 72 hours incubation, K562 cells; read-out: GI50 K562
In short: as §1

[14] = system: BGC-823 (human gastric cancer cells); test: MTT cancer cell growth inhibition; format: cell-based; conditions: Homo sapiens, BGC-823, 72 h, MTT, 72 hours incubation, read-out: GI50 BG
In short: as §1

[15] = system: MCF-7 (human breast cancer cells); test: MTT cancer cell growth inhibition; format: cell-based; conditions: Homo sapiens, MCF7, 72 h, 72 hours incubation, read-out: GI50 MCF
In short: as §1

[16] = system: A549 (human lung cancer cells); test: MTT cancer cell growth inhibition; format: cell-based; conditions: Homo sapiens, A549, 72 h, MTT, 72 hours incubation, read-out: GI50 A54
In short: as §1

[17] = system: DU145 (human prostate cancer cells); test: MTT cancer cell growth inhibition; format: cell-based; conditions: Homo sapiens, DU-145, 72 h, MTT, 72 hours incubation, read-out: GI50 Du1
In short: as §1

[18] = system: lncap (prostate cancer cells); test: MTT cancer cell growth inhibition; format: cell-based; conditions: Homo sapiens, LNCaP, 72 h, MTT, 72 hours incubation, read-out: GI50 lnca
In short: as §1

[19] = system: MOLT-4 (human acute lymphoblastic leukemia cells); test: MTT cancer cell growth inhibition; format: cell-based; conditions: Homo sapiens, MOLT-4, 72 h, MTT, 72 hours incubation, read-out: GI50 Mol
In short: as §1

[20] = system: KBM5-T315I (human chronic myelogenous leukemia); test: MTT cancer cell growth inhibition; format: cell-based; conditions: Homo sapiens, 72 h, MTT, 72 hours incubation, KBM5-T315I cells; read-out: GI50 KBM5-T315I
In short: as §1

[21] = molecular target: T1, HDAC7 (Homo sapiens, UniProt Q8WUI4); test: HDAC biochemical activity measurement (fluorescent substrate deacetylation);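 further: fluorogenic deacetylation assay using acetyl-lysine substrate at 20 µM, enzyme and compound incubated 30 min at 37 °C, then developer added, fluorescence read at 360/460 nm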; conditions: HDAC7; 37° C. 30 minutes
T1 sequence (Q8WUI4 1-952): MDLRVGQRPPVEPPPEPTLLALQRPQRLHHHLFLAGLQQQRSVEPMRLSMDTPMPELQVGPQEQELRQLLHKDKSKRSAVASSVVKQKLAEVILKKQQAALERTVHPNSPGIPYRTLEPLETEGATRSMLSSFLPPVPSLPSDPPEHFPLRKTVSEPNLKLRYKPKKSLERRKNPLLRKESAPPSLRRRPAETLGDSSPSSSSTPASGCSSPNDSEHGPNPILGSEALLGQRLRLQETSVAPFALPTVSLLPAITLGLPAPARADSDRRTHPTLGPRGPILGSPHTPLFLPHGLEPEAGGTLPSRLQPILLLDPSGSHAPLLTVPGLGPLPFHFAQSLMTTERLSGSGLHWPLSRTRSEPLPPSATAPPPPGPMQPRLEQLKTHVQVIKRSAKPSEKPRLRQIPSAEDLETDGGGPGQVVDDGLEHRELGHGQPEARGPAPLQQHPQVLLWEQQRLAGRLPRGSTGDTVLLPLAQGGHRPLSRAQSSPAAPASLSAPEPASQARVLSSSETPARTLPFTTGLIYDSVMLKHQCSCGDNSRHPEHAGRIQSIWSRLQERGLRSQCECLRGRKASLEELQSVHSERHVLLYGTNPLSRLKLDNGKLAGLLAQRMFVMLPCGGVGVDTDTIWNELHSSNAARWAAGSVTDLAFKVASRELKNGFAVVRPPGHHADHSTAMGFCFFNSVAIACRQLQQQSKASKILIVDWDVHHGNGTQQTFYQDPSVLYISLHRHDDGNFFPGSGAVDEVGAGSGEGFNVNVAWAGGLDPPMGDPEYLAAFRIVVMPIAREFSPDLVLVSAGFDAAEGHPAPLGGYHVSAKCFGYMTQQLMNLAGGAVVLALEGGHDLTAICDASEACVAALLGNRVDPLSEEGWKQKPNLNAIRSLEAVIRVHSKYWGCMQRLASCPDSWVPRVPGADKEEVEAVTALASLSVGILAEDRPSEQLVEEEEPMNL

Row | SMILES | GI50 [1] [nM] | GI50 [2] [nM] | GI50 [3] [nM] | GI50 [4] [nM] | GI50 [5] [nM] | GI50 [6] [nM] | GI50 [7] [nM] | GI50 [8] [nM] | GI50 [9] [nM] | GI50 [10] [nM] | GI50 [11] [nM] | GI50 [12] [nM] | GI50 [13] [nM] | GI50 [14] [nM] | GI50 [15] [nM] | GI50 [16] [nM] | GI50 [17] [nM] | GI50 [18] [nM] | GI50 [20] [nM] | IC50 HDAC7 [21] | also measured
1 | C=C1NC(=O)c2cc(F)cc(n2)CNC(=O)C[C@@H](/C=C/CCSC(C)=O)OC(=O)[C@H](C(C)C)NC1=O [Compound 85] | 39 | 49 | 49 | 53 | 61 | 39 | 60 | 15 | 40 | 27 | 50 | 40 | 26 | 20 | 20 | 10 | 20 | 30 | 25 | no activity | GI50 [19]: 30 nM
2 | C/C=C1\NC(=O)c2cc(F)cc(n2)CNC(=O)C[C@@H](/C=C/CCS)OC(=O)[C@H](CCCCN)NC1=O [Compound 117] | 66 | 34 | 86 | 22 | 72 | 58 | 30 | 33 | 40 | 16 | 80 | 60 | 35 | 70 | 20 | 60 | 10 | 20 | 59 | no activity | GI50 [19]: 20 nM
3 | C=C1NC(=O)c2ccc(F)c(n2)CNC(=O)C[C@@H](/C=C/CCSC(C)=O)OC(=O)[C@H](C(C)C)NC1=O [Compound 86] | 37 | 82 | 82 | 61 | 39 | 37 | 30 | 28 | 80 | 37 | 60 | 80 | 38 | 30 | 30 | 20 | 30 | 30 | 34 | no activity | GI50 [19]: 30 nM
4 | CC(C)=C1NC(=O)c2cccc(n2)CNC(=O)C[C@@H](/C=C/CCS)OC(=O)[C@H](C(C)C)NC1=O [Compound 135] | 87 | 39 | 93 | 11 | 79 | 41 | 90 | 44 | 90 | 26 | 70 | 50 | 33 | 50 | 50 | 90 | 50 | 70 | 51 | no activity | GI50 [19]: 90 nM
5 | C/C=C1\NC(=O)c2nc(ccc2SC)CNC(=O)C[C@@H](/C=C/CCSC(C)=O)OC(=O)[C@H](Cc2ccc(O)cc2)NC1=O [Compound 201] | 90 | 69 | 11 | 29 | 73 | 38 | – | 51 | – | 32 | – | – | 35 | – | – | – | – | – | 35 | no activity | GI50 ([7]; U937 cells): 40 nM; GI50 ([9]; HT1080 cells): 60 nM; GI50 ([11]; Hela cells): 30 nM; GI50 ([12]; PANC-1 cells): 60 nM; GI50 ([14]; BGC-823 cells): 50 nM; GI50 ([15]; MCF-7 cells): 40 nM; GI50 ([16]; A549 cells): 30 nM; GI50 ([17]; DU145 cells): 30 nM; GI50 ([18]; lncap cells): 70 nM; GI50 ([19]; MOLT-4 cells): 20 nM
6 | C/C=C1\NC(=O)c2nccc(n2)CNC(=O)C[C@@H](/C=C/CCS)OC(=O)[C@H](C)NC1=O [Compound 144] | 23 | 35 | 12 | 11 | 38 | 37 | 70 | 41 | 70 | 29 | 50 | 70 | 11 | 70 | 60 | 70 | 60 | 50 | 127 | no activity | GI50 [19]: 70 nM
7 | C/C=C1\NC(=O)c2cc(F)cc(n2)CNC(=O)C[C@@H](/C=C/CCSC(C)=O)OC(=O)[C@H](CCCCN)NC1=O [Example 73] | 35 | 52 | 52 | 86 | 37 | 35 | 30 | 28 | 50 | 38 | 80 | 50 | 35 | 30 | 20 | 20 | 30 | 30 | 24 | no activity | GI50 [19]: 30 nM
